Reference: patent US9261498B2, “Biomarker for sensitivity to mTOR inhibitor therapy in kidney cancer” (The Regents of the University of California, priority 2005, dated 2016)
“Also recorded” adds a separate entry of the source.

Key:
[1] = system: HIF-1α, HIF-2α, GLUT-1, CA-IX; test: Immunoblot of HIF and target proteins in VHL knockdown cells expressing HIF-1α (P564A) / HIF-2α (P405A; P531A) mutants; type: cell-based, human; details: SN12C VHL knockdown cells with HIF mutants lacking 5'TOP, 24 hours
Protocol: FIGS. 4A-4C. Rescue of CCI-779 growth suppression by HIF-1-α and HIF-2-α prolyl hydcroxylase mutants. SN12C-CSCG-VHLshRNA cells stably infected with the prolyl hydroxylation defective cDNA mutants p-Babe-puro-HA-HIF-1α (P564A), HIF-2α (P405A; P531A) or backbone vector were treated with CCI-779 or vehicle and harvested 24 hours later. (a) Lysates were subjected to immunoblotting for HIF-1α, HIF-2α, GLUT-1, CA-IX, p-eIF4G, p-S6 and β-Actin as loading control. (b) SN12C-VHLshRNA, SN12C-VHLshRNA-HIF-1α mutant, SN12C-VHLshRNA-HIF-2α mutant cells (1×10^5) were cultured in 10% serum rich media, in the presence of vehicle, 1 or 10 nM of CCI-779 for 5 days. Cell growth was measured by cell counts (n=3). […]
(§1) Cells and xenograft tumors were lysed in ECB lysis buffer (see, e.g. Kondo et al., Cancer Cell 1, 237-46 (2002)) or high-detergent buffer (2% SDS), (see, e.g. Chen et al., Nat Med 10, 33-9 (2004)), respectively, supplemented with complete protease and phosphatase inhibitor cocktails (Calbiochem). […] Bound antibody was detected using enhanced chemiluminescence (ECL, Amersham). For VEGF ELISA quantification, cells were plated in 6 well plates (1×10^5 per well). […] Thirty-six hours later, VEGF ELISA (R&D Systems) was performed according to the manufacturer's instructions, using a Fisher Plate reader. […]

mTOR = test: Immunoblot of p-S6 and p-eIF4G in cell lysates (mTOR activity); type: cell-based, human
Protocol: (a) SN12C-CSCG and SN12C-VHLshRNA cell were treated with vehicle, 1 nM or 10 nM of CCI-779 and lysed 24 hours later. Lysates were subjected to immunoblotting for HIF-1α, HIF-2α, GLUT-1, CA-IX, p-eIF4G, p-S6 Ribosomal protein. Equal protein loading was verified using anti-β-actin antibody. (b) HIF-1α expression was probed by immunoblotting in SN12C-MSCV-5′TOP-HIF-1α cDNA (left panel) and SN12C-MSCV-HIF-1α cDNA (tight panel) post 24 hours of vehicle, 1 nM or 10 nM of CCI-779.
FIGS. 4A-4C. Rescue of CCI-779 growth suppression by HIF-1-α and HIF-2-α prolyl hydcroxylase mutants. […] Cell growth was measured by cell counts (n=3). […]
as §1

SMILES: CO[C@H]1C[C@@H]2CC[C@@H](C)[C@@](O)(O2)C(=O)C(=O)N2CCCC[C@H]2C(=O)O[C@H]([C@H](C)C[C@@H]2CC[C@@H](OC(=O)C(C)(CO)CO)[C@H](OC)C2)CC(=O)[C@H](C)/C=C(\C)[C@@H](O)[C@@H](OC)C(=O)[C@H](C)C[C@H](C)/C=C/C=C/C=C/1C [CCI-779]
- levels of HIF mutants and downstream targets GLUT-1 and CA-IX [1]: stably expressed in the presence or absence of CCI-779; also recorded: not affected
- phosphorylation of S6 and eIF4G (mTOR; VHL knockdown cells expressing HIF-1α/HIF-2α mutants): decreased phosphorylation
- phosphorylation of S6 and eIF4G (mTOR; parental and VHL knockdown cells, 1 and 10 nM CCI-779): reduced phosphorylation; also recorded: reduction in phosphorylation
